Molecular target: T1, PTP-1B (Homo sapiens, UniProt P18031)
T1 construct: PTP-1B (purified, 1 mg/mL) as a 1:250 dilution
T1 sequence (P18031 1-321 limits assumed): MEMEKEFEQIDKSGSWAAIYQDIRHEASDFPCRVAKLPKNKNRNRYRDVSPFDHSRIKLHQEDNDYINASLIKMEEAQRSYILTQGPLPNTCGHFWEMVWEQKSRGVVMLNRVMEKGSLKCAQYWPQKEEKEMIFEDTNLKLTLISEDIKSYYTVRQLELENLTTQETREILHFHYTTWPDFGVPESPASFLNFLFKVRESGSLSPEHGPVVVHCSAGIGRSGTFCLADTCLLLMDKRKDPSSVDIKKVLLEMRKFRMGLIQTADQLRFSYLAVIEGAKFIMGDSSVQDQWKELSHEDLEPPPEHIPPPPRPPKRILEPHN
Experiment: pNPP tyrosine phosphatase inhibition assay, PTP-1B
Format: biochemical
Conditions: pNPP assay, PTP-1B; read-out: Activity Class (IC50 ranges)
How it was run: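 Test compounds were screened at two final levels, 31.3 and 10 µM, against 4 µg/mL purified PTP-1B. The substrate was 10 mM p-nitrophenyl phosphate, with incubation for 10 min at 30°C before a K2CO3 quench. Activity was taken from A405.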

| SMILES | IC50 |
| --- | --- |
| COc1ccccc1S(=O)(=O)N(Cc1ccc(C#N)cc1)Cc1ccc(CC(C(=O)O)C(=O)O)cc1 [Compound 140, 2-(4-{[(4-Cyano-benzyl)-(2-methoxy-benzenesulfonyl)-amino]-methyl}-benzyl)-malonic acid] | > 25000 nM |
| COc1ccccc1S(=O)(=O)N(Cc1ccc(N(C)C(=O)C(=O)O)cc1)Cc1ccc(N(C)C(=O)C(=O)O)cc1 [Compound 141, N-[4-({(2-Methoxy-benzenesulfonyl)-[4-(methyl-oxalyl-amino)-benzyl]-amino}-methyl)-phenyl]-N-methyl-oxalamic acid] | > 25000 nM |
| COc1ccccc1S(=O)(=O)N(Cc1cccc(-c2cccc(S(C)(=O)=O)c2)c1)Cc1ccc(C(F)(F)P(=O)(O)O)c(Cl)c1 [Compound 142, [(2-Chloro-4-{[(3′-methanesulfonyl-biphenyl-3-ylmethyl)-(2-methoxy-benzenesulfonyl)-amino]-methyl}-phenyl)-difluoro-methyl]-phosphonic acid] | 250 to 499 nM |
| COc1ccccc1S(=O)(=O)N(Cc1cccc(-c2ccc(S(C)(=O)=O)cc2)c1)Cc1ccc(C(F)(F)P(=O)(O)O)c(Cl)c1 [Compound 143, [(2-Chloro-4-{[(4′-methanesulfonyl-biphenyl-3-ylmethyl)-(2-methoxy-benzenesulfonyl)-amino]-methyl}-phenyl)-difluoro-methyl]-phosphonic acid] | 250 to 499 nM |
| CS(=O)(=O)c1cccc(-c2ccc(S(=O)(=O)N(Cc3ccc(C#N)cc3)Cc3ccc(C(F)(F)P(=O)(O)O)c(Cl)c3)cc2)c1 [Compound 144, [(2-Chloro-4-{[(4-cyano-benzyl)-(3′-methanesulfonyl-biphenyl-4-sulfonyl)-amino]-methyl}-phenyl)-difluoro-methyl]-phosphonic acid] | 250 to 499 nM |
| COC(=O)c1cccc(-c2ccc(CN(Cc3ccc(C(F)(F)P(=O)(O)O)c(Cl)c3)S(=O)(=O)c3ccccc3OC)cc2)c1 [Compound 145, 4′-{[[3-Chloro-4-(difluoro-phosphono-methyl)-benzyl]-(2-methoxy-benzenesulfonyl)-amino]-methyl}-biphenyl-3-carboxylic acid methyl ester] | 250 to 499 nM |
| COc1ccccc1S(=O)(=O)N(Cc1ccc(Cl)c(Cl)c1)Cc1ccc(C(F)(F)P(=O)(O)O)c(Cl)c1 [Compound 146, [(2-Chloro-4-{[(3,4-dichloro-benzyl)-(2-methoxy-benzenesulfonyl)-amino]-methyl}-phenyl)-difluoro-methyl]-phosphonic acid] | 250 to 499 nM |
| COc1ccccc1S(=O)(=O)N(Cc1ccc(-c2ccc(S(C)(=O)=O)cc2)cc1)Cc1ccc(C(F)(F)P(=O)(O)O)c(Cl)c1 [Compound 147, [(2-Chloro-4-{[(4′-methanesulfonyl-biphenyl-4-ylmethyl)-(2-methoxy-benzenesulfonyl)-amino]-methyl}-phenyl)-difluoro-methyl]-phosphonic acid] | 100 to 249 nM |
| COc1ccccc1S(=O)(=O)N(Cc1ccc(-c2cccc(S(C)(=O)=O)c2)cc1)Cc1ccc(C(F)(F)P(=O)(O)O)c(Cl)c1 [Compound 148, [(2-Chloro-4-{[(3′-methanesulfonyl-biphenyl-4-ylmethyl)-(2-methoxy-benzenesulfonyl)-amino]-methyl}-phenyl)-difluoro-methyl]-phosphonic acid] | 100 to 249 nM |
| COc1ccccc1S(=O)(=O)N(Cc1ccc(-c2cccc(C(=O)O)c2)cc1)Cc1ccc(C(F)(F)P(=O)(O)O)c(Cl)c1 [Compound 149, 4′-{[[3-Chloro-4-(difluoro-phosphono-methyl)-benzyl]-(2-methoxy-benzenesulfonyl)-amino]-methyl}-biphenyl-3-carboxylic acid] | < 99 nM |
| COc1ccccc1S(=O)(=O)N(Cc1ccc(-c2ccc(S(C)(=O)=O)cc2)c(C)c1)Cc1ccc(C(F)(F)P(=O)(O)O)c(Cl)c1 [Compound 151, [(2-Chloro-4-{[(4′-methanesulfonyl-2-methyl-biphenyl-4-ylmethyl)-(2-methoxy-benzenesulfonyl)-amino]-methyl}-phenyl)-difluoro-methyl]-phosphonic acid] | 250 to 499 nM |
| COc1ccccc1S(=O)(=O)N(Cc1ccc(-c2ccc(CC#N)cc2)cc1)Cc1ccc(C(F)(F)P(=O)(O)O)c(Cl)c1 [Compound 152, [(2-Chloro-4-{[(4′-cyanomethyl-biphenyl-4-ylmethyl)-(2-methoxy-benzenesulfonyl)-amino]-methyl}-phenyl)-difluoro-methyl]-phosphonic acid] | 100 to 249 nM |
| COc1ccccc1S(=O)(=O)N(Cc1ccc(-c2ccc(Cc3nn[nH]n3)cc2)cc1)Cc1ccc(C(F)(F)P(=O)(O)O)c(Cl)c1 [Compound 153, {[2-Chloro-4-({(2-methoxy-benzenesulfonyl)-[4′-(2H-tetrazol-5-ylmethyl)-biphenyl-4-ylmethyl]-amino}-methyl)-phenyl]-difluoro-methyl}-phosphonic acid] | 100 to 249 nM |
| N#Cc1cccc(-c2ccc(CN(Cc3ccc(C(F)(F)P(=O)(O)O)c(Cl)c3)S(=O)(=O)c3ccc4ccccc4c3)cc2)c1 [Compound 154, [(2-Chloro-4-{[(3′-cyano-biphenyl-4-ylmethyl)-(naphthalene-2-sulfonyl)-amino]-methyl}-phenyl)-difluoro-methyl]-phosphonic acid] | 250 to 499 nM |
| COc1ccccc1S(=O)(=O)N(Cc1ccc(-c2ccc(C#N)cc2)cc1)Cc1ccc(C(F)(F)P(=O)(O)O)c(Cl)c1 [Compound 155, [(2-Chloro-4-{[(4′-cyano-biphenyl-4-ylmethyl)-(2-methoxy-benzenesulfonyl)-amino]-methyl}-phenyl)-difluoro-methyl]-phosphonic acid] | 100 to 249 nM |
| COc1ccccc1S(=O)(=O)N(Cc1ccc(-c2ccc(O)c(C(=O)O)c2)cc1)Cc1ccc(C(F)(F)P(=O)(O)O)c(Cl)c1 [Compound 156, 4′-{[[3-Chloro-4-(difluoro-phosphono-methyl)-benzyl]-(2-methoxy-benzenesulfonyl)-amino]-methyl}-4-hydroxy-biphenyl-3-carboxylic acid] | < 99 nM |
| O=P(O)(O)C(F)(F)c1ccc(CN(Cc2ccc(-c3cccc(-c4nn[nH]n4)c3)cc2)S(=O)(=O)c2ccc3ccccc3c2)cc1Cl [Compound 158, {[2-Chloro-4-({(naphthalene-2-sulfonyl)-[3′-(2H-tetrazol-5-yl)-biphenyl-4-ylmethyl]-amino}-methyl)-phenyl]-difluoro-methyl}-phosphonic acid] | < 99 nM |
| COc1ccccc1S(=O)(=O)N(Cc1ccc(-c2ccc(-c3nn[nH]n3)cc2)cc1)Cc1ccc(C(F)(F)P(=O)(O)O)c(Cl)c1 [Compound 159, {[2-Chloro-4-({(2-methoxy-benzenesulfonyl)-[4′-(2H-tetrazol-5-yl)-biphenyl-4-ylmethyl]-amino}-methyl)-phenyl]-difluoro-methyl}-phosphonic acid] | < 99 nM |
| CCCc1cc(-c2ccc(CN(Cc3ccc(C(F)(F)P(=O)(O)O)c(Cl)c3)S(=O)(=O)c3ccccc3OC)cc2)cc(C(=O)OC)c1O [Compound 160, 4′-{[[3-Chloro-4-(difluoro-phosphono-methyl)-benzyl]-(2-methoxy-benzenesulfonyl)-amino]-methyl}-4-hydroxy-5-propyl-biphenyl-3-carboxylic acid methyl ester] | 250 to 499 nM |
| COc1ccccc1S(=O)(=O)N(Cc1ccc(-c2cccc(C(N)=O)c2)cc1)Cc1ccc(C(F)(F)P(=O)(O)O)c(Cl)c1 [Compound 161, [(4-{[(3′-Carbamoyl-biphenyl-4-ylmethyl)-(2-methoxy-benzenesulfonyl)-amino]-methyl}-2-chloro-phenyl)-difluoro-methyl]-phosphonic acid] | 100 to 249 nM |
| N#Cc1cccc(-c2ccc(CN(Cc3ccc(C(F)(F)P(=O)(O)O)c(Cl)c3)S(=O)(=O)c3ccc(F)cc3Cl)cc2)c1 [Compound 162, [(2-Chloro-4-{[(2-chloro-4-fluoro-benzenesulfonyl)-(3′-cyano-biphenyl-4-ylmethyl)-amino]-methyl}-phenyl)-difluoro-methyl]-phosphonic acid] | 100 to 249 nM |
| N#Cc1cccc(-c2ccc(CN(Cc3ccc(C(F)(F)P(=O)(O)O)c(Cl)c3)S(=O)(=O)c3ccccc3Cl)cc2)c1 [Compound 163, [(2-Chloro-4-{[(2-chloro-benzenesulfonyl)-(3′-cyano-biphenyl-4-ylmethyl)-amino]-methyl}-phenyl)-difluoro-methyl]-phosphonic acid] | 100 to 249 nM |
| COc1ccccc1S(=O)(=O)N(Cc1ccc(-c2cccc(C#N)c2)cc1)Cc1ccc(C(F)(F)P(=O)(O)OC)c(Cl)c1 [Compound 165, [(2-Chloro-4-{[(3′-cyano-biphenyl-4-ylmethyl)-(2-methoxy-benzenesulfonyl)-amino]-methyl}-phenyl)-difluoro-methyl]-phosphonic acid monomethyl ester] | 2500 to 25000 nM |
| COc1ccccc1S(=O)(=O)N(Cc1ccc(C(F)(F)P(=O)(O)O)c(Cl)c1)C(C)c1ccccc1 (centres unmarked) [Compound 166, [(2-Chloro-4-{[(2-methoxy-benzenesulfonyl)-(1-phenyl-ethyl)-amino]-methyl}-phenyl)-difluoro-methyl]-phosphonic acid] | 2500 to 25000 nM |
| COc1ccccc1S(=O)(=O)N(Cc1ccc(C(F)(F)P(=O)(O)O)c(Cl)c1)Cc1ccccc1C [Compound 167, [(2-Chloro-4-{[(2-methoxy-benzenesulfonyl)-(2-methyl-benzyl)-amino]-methyl}-phenyl)-difluoro-methyl]-phosphonic acid] | 250 to 499 nM |
| COc1ccccc1S(=O)(=O)N(Cc1ccc(C(F)(F)P(=O)(O)O)c(Cl)c1)Cc1ccccc1-c1ccccc1 [Compound 168, [(4-{[Biphenyl-2-ylmethyl-(2-methoxy-benzenesulfonyl)-amino]-methyl}-2-chloro-phenyl)-difluoro-methyl]-phosphonic acid] | 100 to 249 nM |

Source: patent publication US20060135773A1, “Trisubstituted nitrogen modulators of tyrosine phosphatases” (priority 2004, published 2006)
